The values that follow come from patent US9701659B2, “Insecticidally active amide derivatives with sulfur-substituted phenyl or pyridine groups” (Syngenta Participations AG, priority 2014, dated 2017).

For data set [1], the system named is Spodoptera littoralis (Egyptian cotton leaf worm). Description: Example B1: activity against Spodoptera littoralis, larvicide, feeding/residual contact, preventive (cotton leaf discs). It counts as in vivo. The conditions noted are these: foliar, 72 h, L1 larvae, 3 days after treatment, read-out: activity (mortality, repellent effect, feeding behaviour, growth regulation). An excerpt: Activity Against Spodoptera littoralis (Egyptian Cotton Leaf Worm)
(§1) (Larvicide, Feeding/Residual Contact Activity, Preventive)
Cotton leaf discs were placed on agar in a 24-well microtiter plate and sprayed with test solutions. After drying, the leaf discs were infested with 5 L1 larvae. The samples were checked for mortality, repellent effect, feeding behaviour, and growth regulation 3 days after treatment (DAT).

Data set [2] has as its system Diabrotica balteata (corn root worm). As to the kind of experiment: Example B4: activity against Diabrotica balteata, larvae L2 on maize sprouts, feeding/contact, preventative. It counts as in vivo. The conditions noted are these: 120 h, 5 days incubation, read-out: activity (larval mortality, growth regulation). The protocol: Activity Against Diabrotica Balteata (Corn Root Worm)
(Larvae L2 on Maize Sprouts, Feeding/Contact, Preventative)
Maize sprouts, placed on an agar layer in 24 well micro titer plates were treated with test solutions by spraying. After drying, the MTPs were infested with L2 larvae (6-10 per well). After an incubation period of 5 days, samples were checked for larval mortality and growth regulation.

Data set [3] concerns Myzus persicae (green peach aphid). Description: Example B6: activity against Myzus persicae, feeding activity sachet test, mixed population. In kind it is in vivo. The conditions noted are these: 120 h, 5 days after infestation. An excerpt:
(§2) Activity Against Myzus persicae (Green Peach Aphid)
(Feeding Activity Sachet Test), Mixed Population
Test compounds were applied by pipette into 24 well plates and mixed with Sucrose solution. The plates were closed with a stretched Parafilm. A plastic stencil with 24 holes is placed onto the plate and infested pea seedlings were placed directly on the Parafilm. The infested plate is closed with a gel blotting paper and another plastic stencil and then turned upside down. 5 days after infestation the samples were checked on mortality. Application rate: 12.5 ppm.

Data set [4] has the same test system. As to the kind of experiment: Example B5: activity against Myzus persicae, feeding/residual contact, preventive, mixed population (sunflower leaf discs). The conditions noted are these: foliar, 144 h, mixed ages, 6 DAT, read-out: activity (mortality, special effects). In kind it is in vivo. The method, then: as §2
(Feeding/Residual Contact Activity, Preventive), Mixed Population
Sunflower leaf discs were placed on agar in a 24-well microtiter plate and sprayed with test solutions. After drying, the leaf discs were infested with an aphid population of mixed ages. After an incubation period of 6 DAT, samples were checked for mortality and special effects (e.g. phytotoxicity).

For data set [5], the system named is Aedes aegypti (yellow fever mosquito). Description: Example B9: activity against Aedes aegypti, adult females on treated plates. In kind it is in vivo. The settings on record: 200 ppm in ethanol; after 48 hours. The protocol: Activity Against Aedes aegypti (Yellow Fever Mosquito)
Test solutions, at an application rate of 200 ppm in ethanol, were applied to 12-well tissue culture plates. Once the deposits were dry, five, two to five days old adult female Aedes aegypti were added to each well, and sustained with a 10% sucrose solution in a cotton wool plug. Assessment of knockdown was made one hour after introduction, and mortality was assessed at 24 and 48 hours after introduction.

Data set [6] concerns Plutella xylostella (diamond back moth). Description: Example B3: activity against Plutella xylostella, larvicide, feeding/residual contact, preventive (artificial diet). In kind it is in vivo. The conditions noted are these: 120 h, L2 larvae, 5 days incubation, read-out: activity (larval mortality, antifeedant, growth regulation). The method, then: Activity Against Plutella xylostella (Diamond Back Moth)
as §1
24-well microtiter plate (MTP) with artificial diet was treated with test solutions by pipetting. After drying, the MTPs were infested with L2 larvae (10-15 per well). After an incubation period of 5 days, samples were checked for larval mortality, antifeedant and growth regulation.

Data set [7] relates to Myzus persicae (green peach aphid). As to the kind of experiment: Example B7: activity against Myzus persicae, systemic/feeding activity, curative, mixed population (pea seedlings). In kind it is in vivo. The conditions noted are these: 144 h, roots in test solution, 6 days after introduction, read-out: activity (mortality, special effects on the plant).
Excerpt: as §2
(Systemic/Feeding Activity, Curative), Mixed Population
Roots of pea seedlings, infested with an aphid population of mixed ages, were placed directly in the test solutions. 6 days after introduction, samples were checked for mortality and special effects on the plant.

The term melting point denotes the temperature, or range, at which the solid turns liquid. `CCS(=O)(=O)c1cc(C(F)(F)F)ccc1C(=O)/N=c1\sc(C(F)(F)F)nn1C`: the melting point lay within 195 to 197 °C.
Same read-out and setting: with `CCS(=O)(=O)c1cc(C(F)(F)F)cnc1C(=O)/N=c1\sc(C(F)(F)C(F)(F)F)nn1C` the figure was 123 to 125 °C.
`CCS(=O)(=O)c1cc(C(F)(F)F)cnc1C(=O)/N=c1\cc(C(F)(F)F)ccn1C` gave a melting point of 153 to 155 °C.
On to `CCS(=O)(=O)c1cc(C(F)(F)F)cnc1C(=O)/N=c1\ccc(SC(F)(F)F)cn1C`, for which the melting point lay within 167 to 169 °C.
Compound `CCS(=O)(=O)c1cc(C(F)(F)F)cnc1C(=O)/N=c1\scc(C(F)(F)F)n1C` gave a melting point of 163 to 165 °C.
Broadly, the mortality is the share of the test organisms that died. In the case of `CCS(=O)(=O)c1cc(C(F)(F)F)cnc1C(=O)/N=c1\sc(C(F)(F)F)cn1C` [P1, (N)-3-ethylsulfonyl-N-[3-methyl-5-(trifluoromethyl)thiazol-2-ylidene]-5-(trifluoromethyl)pyridine-2-carboxamide], the mortality at 400 ppm in data set [1] and in data set [2] was over 80% throughout.
In turn, `CCSc1cccnc1C(=O)/N=c1\sc(C(F)(F)F)nn1C` [P3, (N)-3-ethylsulfanyl-N-[3-methyl-5-(trifluoromethyl)-1,3,4-thiadiazol-2-ylidene]pyridine-2-carboxamide] gave a mortality at 12.5 ppm in data set [3] of at least 80%. Also, the mortality at 400 ppm in data set [4] and in data set [2] was over 80% in each case. For the same compound, in data set [5], the “control of Aedes aegypti” value is recorded as “at least 80%”.
In the case of `CCSc1cc(C(F)(F)F)cnc1C(=O)/N=c1\sc(C(F)(F)F)nn1C` [P4], the mortality at 400 ppm in data set [1], in data set [6] and in data set [2] was over 80% each time.
Turning to `CCS(=O)(=O)c1cccnc1C(=O)/N=c1\sc(C(F)(F)F)nn1C` [P5, (N)-3-ethylsulfonyl-N-[3-methyl-5-(trifluoromethyl)-1,3,4-thiadiazol-2-ylidene]pyridine-2-carboxamide], the mortality at 400 ppm in data set [4] is over 80%. Further, in data set [7], the mortality at 24 ppm is at least 80%.
As for `CCS(=O)(=O)c1cc(C(F)(F)F)cnc1C(=O)/N=c1\sc(C(F)(F)F)nn1C` [P6], the mortality at 400 ppm in data set [1], in data set [6] and in data set [2] was over 80% each time.
Consider `CCS(=O)(=O)c1cc(C(F)(F)F)cnc1C(=O)/N=c1\ccc(C(F)(F)F)nn1C` [P9], for which, in data set [4], the mortality at 400 ppm was over 80%.
